Test results: patent publication US20230322723A1, “COMPOUNDS FOR SUPPRESSING EGFR MUTANT CANCER AND PHARMACEUTICAL USE THEREOF” (J2H BIOTECH INC., priority 2020, published 2023)

Tests used:
EGFR^del19+T790M+C797S = assay: EGFR protein degradation test (Western blot) in Ba/F3 cells expressing mutant EGFR del19+T790M+C797S (DTC); format: cell-based; conditions: compounds at 0.1 μM and 1 μM, 24 hours, Western blot with EGFR antibody
In short: (§1)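 EGFR protein level was measured by Western blot on 30 μg lysate, bands quantified by imager. Lysates came from Ba/F3 lines carrying normal, LTC or DTC mutant EGFR, exposed 24 h to compound at 0.1 and 1 μM.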

EGFR^L858R+T790M+C797S = target: T1, EGFR^L858R+T790M+C797S (Homo sapiens, UniProt P00533, C797S/L858R/T790M); assay: EGFR protein degradation test (Western blot) in Ba/F3 cells expressing mutant EGFR L858R+T790M+C797S (LTC); format: cell-based; conditions: compounds at 0.1 μM and 1 μM, 24 hours, Western blot with EGFR antibody
T1 construct: expressed in transfected cells; host or cells: Ba/F3
T1 sequence (P00533 25-1210 T790M/C797S/L858R): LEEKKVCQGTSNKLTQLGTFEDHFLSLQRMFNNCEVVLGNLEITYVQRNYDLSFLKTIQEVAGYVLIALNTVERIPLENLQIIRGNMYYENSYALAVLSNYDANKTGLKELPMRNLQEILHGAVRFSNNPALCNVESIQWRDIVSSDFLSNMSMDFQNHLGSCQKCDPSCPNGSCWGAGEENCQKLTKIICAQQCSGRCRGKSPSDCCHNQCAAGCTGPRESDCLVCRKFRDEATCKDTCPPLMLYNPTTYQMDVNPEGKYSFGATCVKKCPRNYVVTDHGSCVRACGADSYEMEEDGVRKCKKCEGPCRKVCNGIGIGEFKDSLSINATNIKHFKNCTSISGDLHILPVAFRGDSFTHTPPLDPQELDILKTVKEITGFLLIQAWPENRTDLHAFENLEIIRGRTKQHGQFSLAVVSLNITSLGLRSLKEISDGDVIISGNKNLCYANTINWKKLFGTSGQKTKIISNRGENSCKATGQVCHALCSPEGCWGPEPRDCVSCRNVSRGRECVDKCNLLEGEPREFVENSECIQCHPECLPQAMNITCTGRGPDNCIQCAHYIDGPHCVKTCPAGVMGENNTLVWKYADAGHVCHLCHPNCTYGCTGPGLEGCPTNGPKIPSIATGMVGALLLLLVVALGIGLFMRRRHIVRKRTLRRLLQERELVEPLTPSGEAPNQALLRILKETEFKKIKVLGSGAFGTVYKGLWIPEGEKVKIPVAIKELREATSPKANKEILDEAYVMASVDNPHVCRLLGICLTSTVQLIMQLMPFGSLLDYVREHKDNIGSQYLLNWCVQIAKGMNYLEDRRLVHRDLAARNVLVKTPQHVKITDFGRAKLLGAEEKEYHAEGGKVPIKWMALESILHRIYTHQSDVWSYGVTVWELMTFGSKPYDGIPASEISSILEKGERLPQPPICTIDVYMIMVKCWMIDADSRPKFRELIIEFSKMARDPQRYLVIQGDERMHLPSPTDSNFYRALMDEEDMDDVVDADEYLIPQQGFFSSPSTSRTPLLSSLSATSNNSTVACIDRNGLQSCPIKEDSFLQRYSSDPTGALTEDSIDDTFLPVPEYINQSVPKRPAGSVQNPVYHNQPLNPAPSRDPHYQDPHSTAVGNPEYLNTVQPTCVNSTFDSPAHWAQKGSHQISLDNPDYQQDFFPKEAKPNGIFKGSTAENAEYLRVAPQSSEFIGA
In short: as §1

Row | SMILES | DTC (EGFR^del19+T790M+C797S) protein degradation (EGFR^del19+T790M+C797S) | LTC (EGFR^L858R+T790M+C797S) protein degradation (EGFR^L858R+T790M+C797S)
1 | Cc1ncsc1-c1ccc(CNC(=O)[C@H]2C[C@@H](O)CN2C(=O)[C@@H](NC(=O)CN2CCN(C3CCN(c4ccc(Nc5ncc(Cl)c(Nc6ccccc6N(C)S(C)(=O)=O)n5)cc4F)CC3)CC2)C(C)(C)C)cc1 [Compound 19, (2R,4R)-1-((S)-2-(2-(4-(1-(4-((5-chloro-4-((2-(N-methylmethylsulfonamido)phenyl)amino)pyrimidin-2-yl)amino)-2-fluorophenyl)piperidin-4-yl)piperazin-1-yl)acetamido)-3,3-dimethylbutanoyl)-4-hydroxy-N-(4-(4-methylthiazol-5-yl)benzyl)pyrrolidin-2-carboxamide] | ++ (Protein degradation > 80%) | + (Protein degradation 20~80%)
2 | CN(c1ccccc1Nc1nc(Nc2ccc(N3CCN(CCN4CC(Oc5cccc6c5CN(C5CCC(=O)NC5=O)C6=O)C4)CC3)c(F)c2)ncc1Cl)S(C)(=O)=O (stereo not drawn) [Compound 39, N-(2-((5-chloro-2-((4-(4-(2-(3-((2-(2,6-dioxopiperidin-3-yl)-1-oxoisoindolin-4-yl)oxy)azetidin-1-yl)ethyl)piperazin-1-yl)-3-fluorophenyl)amino)pyrimidin-4-yl)amino)phenyl)-N-methylmethanesulfonamide] | + (Protein degradation 20~80%) | + (Protein degradation 20~80%)
3 | COc1cc(N2CCN(CC3CCN(CCOc4cccc5c4C(=O)N(C4CCC(=O)NC4=O)C5=O)CC3)CC2)ccc1Nc1ncc(Cl)c(Nc2ccccc2N(C)S(C)(=O)=O)n1 (stereo not drawn) [Compound 57, N-(2-((5-chloro-2-((4-(4-((1-(2-((2-(2,6-dioxopiperidin-3-yl)-1,3-dioxoisoindolin-4-yl)oxy)ethyl)piperidin-4-yl)methyl)piperazin-1-yl)-2-methoxyphenyl)amino)pyrimidin-4-yl)amino)phenyl)-N-methylmethanesulfonamide] | − (Protein degradation < 20%) | − (Protein degradation < 20%)
4 | COc1cc(N2CCC(CN3CCC(C(=O)N[C@H](C(=O)N4C[C@H](O)C[C@H]4C(=O)NCc4ccc(-c5scnc5C)cc4)C(C)(C)C)CC3)CC2)ccc1Nc1ncc(Cl)c(Nc2ccccc2N(C)S(C)(=O)=O)n1 [Compound 29, 1-((1-(4-((5-chloro-4-((2-(N-methylmethylsulfonamido)phenyl)amino)pyrimidin-2-yl)amino)-3-methoxyphenyl)piperidin-4-yl)methyl)-N—((S)-1-((2S,4R)-4-hydroxy-2-((4-(4-methylthiazol-5-yl)benzyl)carbamoyl)pyrrolidin-1-yl)-3,3-dimethyl-1-oxobutan-2-yl)piperidin-4-carboxamide] | − (Protein degradation < 20%) | − (Protein degradation < 20%)
5 | COc1cc(N2CCN(CCOC3CCN(c4ccc5c(c4)C(=O)N(C4CCC(=O)NC4=O)C5=O)CC3)CC2)ccc1Nc1ncc(Cl)c(Nc2ccccc2N(C)S(C)(=O)=O)n1 (stereo not drawn) [Compound 34, N-(2-((5-chloro-2-((4-(4-(2-((1-(2-(2,6-dioxopiperidin-3-yl)-1,3-dioxoisoindolin-5-yl)piperidin-4-yl)oxy)ethyl)piperazin-1-yl)-2-methoxyphenyl)amino)pyrimidin-4-yl)amino)phenyl)-N-methylmethanesulfonamide] | − (Protein degradation < 20%) | − (Protein degradation < 20%)
6 | COc1cc(N2CCN(CCCCCCCCCCC(=O)Nc3cccc4c3C(=O)N(C3CCC(=O)NC3=O)C4=O)CC2)ccc1Nc1ncc(Cl)c(Nc2ccccc2N(C)S(C)(=O)=O)n1 (stereo not drawn) [Compound 4, 11-(4-(4-((5-chloro-4-((2-(N-methylmethylsulfonamido)phenyl)amino)pyrimidin-2-yl)amino)-3-methoxyphenyl)piperazin-1-yl)-N-(2-(2,6-dioxopiperidin-3-yl)-1,3-dioxoisoindolin-4-yl)undecanamide] | − (Protein degradation < 20%) | − (Protein degradation < 20%)
7 | CN(c1ccccc1Nc1nc(Nc2ccc(N3CCC(N4CCN(Cc5ccc6c(c5)C(=O)N(C5CCC(=O)NC5=O)C6=O)CC4)CC3)c(F)c2)ncc1Cl)S(C)(=O)=O (stereo not drawn) [Compound 42, N-(2-((5-chloro-2-((4-(4-(4-((2-(2,6-dioxopiperidin-3-yl)-1,3-dioxoisoindolin-5-yl)methyl)piperazin-1-yl)piperidin-1-yl)-3-fluorophenyl)amino)pyrimidin-4-yl)amino)phenyl)-N-methylmethanesulfonamide] | + (Protein degradation 20~80%) | − (Protein degradation < 20%)
8 | COc1cc(N2CCC(N3CCN(CC4CN(c5ccc6c(c5)C(=O)N(C5CCC(=O)NC5=O)C6=O)C4)CC3)CC2)ccc1Nc1ncc(Cl)c(Nc2ccccc2N(C)S(C)(=O)=O)n1 (stereo not drawn) [Compound 60, N-(2-((5-chloro-2-((4-(4-(4-((1-(2-(2,6-dioxopiperidin-3-yl)-1,3-dioxoisoindolin-5-yl)azetidin-3-yl)methyl)piperazin-1-yl)piperidin-1-yl)-2-methoxyphenyl)amino)pyrimidin-4-yl)amino)phenyl)-N-methylmethanesulfonamide] | − (Protein degradation < 20%) | ++ (Protein degradation > 80%)
9 | COc1cc(N2CCC(CN3CCN(CC(=O)Nc4cccc5c4C(=O)N(C4CCC(=O)NC4=O)C5=O)CC3)CC2)ccc1Nc1ncc(Cl)c(Nc2ccccc2N(C)S(C)(=O)=O)n1 (stereo not drawn) [Compound 23, 2-(4-((1-(4-((5-chloro-4-((2-(N-methylmethylsulfonamido)phenyl)amino)pyrimidin-2-yl)amino)-3-methoxyphenyl)piperidin-4-yl)methyl)piperazin-1-yl)-N-(2-(2,6-dioxopiperidin-3-yl)-1,3-dioxoisoindolin-4-yl)acetamide] | − (Protein degradation < 20%) | − (Protein degradation < 20%)
